The results in this text go back to patent EP4039094A1, “NOVEL ANTIFUNGAL COMPOUNDS” (Max-Planck-Gesellschaft zur Förderung der Wissenschaften …, priority 2021, dated 2022).

In this test the target is T1, Stp1/Stp4/Stp3 subcomplex (Mycosarcoma maydis, UniProt A0A0D1C5E3+A0A0D1CU07+A0A0D1EAN2).
T1 sequence (A0A0D1CU07 29-515): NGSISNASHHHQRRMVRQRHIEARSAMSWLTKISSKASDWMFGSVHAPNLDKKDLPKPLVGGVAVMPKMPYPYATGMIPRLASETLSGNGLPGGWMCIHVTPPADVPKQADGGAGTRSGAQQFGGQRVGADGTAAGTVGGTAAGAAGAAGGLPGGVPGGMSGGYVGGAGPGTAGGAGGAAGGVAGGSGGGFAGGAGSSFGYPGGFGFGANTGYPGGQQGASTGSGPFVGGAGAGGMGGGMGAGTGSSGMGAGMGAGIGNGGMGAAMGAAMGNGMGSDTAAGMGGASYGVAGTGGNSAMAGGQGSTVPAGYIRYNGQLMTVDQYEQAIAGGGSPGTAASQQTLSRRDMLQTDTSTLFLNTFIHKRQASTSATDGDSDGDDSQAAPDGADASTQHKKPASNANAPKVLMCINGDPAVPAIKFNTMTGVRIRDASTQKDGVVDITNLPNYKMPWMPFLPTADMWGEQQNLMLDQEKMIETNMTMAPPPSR
T1 sequence (A0A0D1C5E3 24-129): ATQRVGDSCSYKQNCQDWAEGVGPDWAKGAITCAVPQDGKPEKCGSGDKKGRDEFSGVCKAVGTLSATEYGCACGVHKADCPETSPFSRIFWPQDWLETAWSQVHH
T1 sequence (A0A0D1EAN2 25-327): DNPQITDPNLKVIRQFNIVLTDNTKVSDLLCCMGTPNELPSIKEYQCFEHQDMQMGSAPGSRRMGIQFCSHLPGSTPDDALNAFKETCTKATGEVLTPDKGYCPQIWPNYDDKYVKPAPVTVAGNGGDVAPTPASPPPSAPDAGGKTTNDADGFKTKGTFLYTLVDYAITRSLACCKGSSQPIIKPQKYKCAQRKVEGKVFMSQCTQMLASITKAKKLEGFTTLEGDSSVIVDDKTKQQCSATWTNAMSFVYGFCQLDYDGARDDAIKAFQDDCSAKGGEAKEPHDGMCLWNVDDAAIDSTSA
In words: Beta-Glo confirmatory assay (β-galactosidase expression) in NL73. The format is cell-based, U. maydis. As to conditions: NL73 strain, Table 5; read-out: B-glo IC50. The method, then:
This system allows luminescence-based quantification of β-galactosidase expression in cells which serves as a readout for promoter activation by interacting complex members Stp1, Stp3 and Stp4. Overnight cultures of NL73 and NL70 strains were harvested as described above. Dilution series of compound stock solution were pre-dispensed into black 384-well assay plates (Corning 4513) using Echo520 Nanoliter dispenser starting from 10 µM with 3-fold dilution over 8 steps. In the viability setup, 15 µl of NL73 cell suspension were dispensed into the assay plates using Multidrop Combi. One column of the assay plate was filled with 15 µl of NL70 cell suspension. In the toxicity setup, 15 µl of NL70 cell suspension in low stringency medium were dispensed into the assay plates with one column being filled with 15 µl of NL70 cell suspension in high stringency medium. Plates were sealed with Breathe-Easy sealing membrane, lidded and incubated in a humid chamber over night at 30°C and 140 rpm in an Infors HT Multitron Pro. After approximately 19 h, plates were centrifuged for 1 min at 500 rpm. 4 µl of Beta-Glo assay solution were added using Multidrop Combi. The plates were sealed again and incubated for 2.5 h at room temperature, unlidded. Luminescence readout was determined on a Spectramax Paradigm detection platform for 0.2 s. Dose response data was analysed with Quattro Software Suite.
Take `Cc1ccc(-c2c(-c3ccc(C)cc3)[n+]([O-])c3ccccn23)cc1` [Compound 1-A]: the half-inhibitory concentration (IC50) was found to be 760 nM.

On to `[O-][n+]1c(-c2ccc(C(F)(F)F)cc2)c(-c2ccc(C(F)(F)F)cc2)n2ccccc21` [Compound 2-A], for which the IC50 amounted to 230 nM. In the case of `O=[N+]([O-])c1ccc(-c2c(-c3ccccc3)n3ccccc3[n+]2[O-])cc1` [Compound 3-A], the IC50 was 860 nM.
